Molecules are shown by their SMILES.

The test system of this test is Corynebacterium xerosis. Description: action against Corynebacterium xerosis. Particulars: qualitative statement, no method or data given.
On to `CCCCCCCCCCCCO[C@@H]1O[C@H](CO)[C@@H](O)[C@H](O)[C@H]1O` [β-D-dodecylglucopyranoside], for which the “action against Corynebacterium xerosis” value is listed as “very good action”.

`CCCCCCCCOC1O[C@H](CO)[C@@H](O)[C@H](O)[C@H]1O` (stereo partly drawn) [octylglucopyranoside]: the “action against Corynebacterium xerosis” value is given as “very good action”.

On to `CCCCCCCCCO[C@@H]1O[C@H](CO)[C@@H](O)[C@H](O)[C@H]1O` [β-D-nonylglucopyranoside], for which the “action against Corynebacterium xerosis” value is reported as “very good action”.

The record behind these values is patent publication US20020165168A1, “USE OF SUGAR DERIVATIVES AS ANTIMICROBIAL, ANTIMYCOTIC AND/OR ANTIVIRAL ACTIVE SUBSTANCES” (priority 1995, published 2002).
